# Molecular target: T1, human MRGPRX2 (Homo sapiens, UniProt Q96LB1)
# T1 sequence (Q96LB1 1-330): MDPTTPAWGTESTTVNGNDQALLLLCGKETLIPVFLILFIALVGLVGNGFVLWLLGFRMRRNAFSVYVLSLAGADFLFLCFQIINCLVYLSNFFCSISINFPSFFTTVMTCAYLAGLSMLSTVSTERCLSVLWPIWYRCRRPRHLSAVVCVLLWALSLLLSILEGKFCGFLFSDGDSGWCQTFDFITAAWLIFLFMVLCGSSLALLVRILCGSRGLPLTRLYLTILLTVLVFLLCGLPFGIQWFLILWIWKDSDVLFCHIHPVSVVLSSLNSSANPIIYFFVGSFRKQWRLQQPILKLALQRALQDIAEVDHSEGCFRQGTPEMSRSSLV
# Assay: Ca2+ mobilization assay (FLIPR TETRA): inhibition of Cortistatin-14 mediated MRGPRX2 activation
row,Structure (SMILES),IC50 [nM]
1,"C[C@@H](C(=O)Nc1ccc(Oc2ccc(F)cc2F)cn1)N1CCC(F)(F)C(c2ccnc(CN3CC(F)(F)C3)c2)C1 (mixture of isomers) [Example 270, (2S)-2-(3-(2-((3,3-difluoroazetidin-1-yl)methyl)pyridin-4-yl)-4,4-difluoropiperidin-1-yl)-N-(5-(2,4-difluorophenoxy)pyridin-2-yl)propanamide]",10 to 100
2,"C[C@@H](C(=O)Nc1ccc(OCC2CC2)nn1)N1CCC(F)(F)C(c2ccc(=O)n(CCS(C)(=O)=O)c2)C1 (stereo partly drawn) [Example 191, (2S)-N-(6-(cyclopropylmethoxy)pyridazin-3-yl)-2-(4,4-difluoro-3-(1-(2-(methylsulfonyl)ethyl)-6-oxo-1,6-dihydropyridin-3-yl)piperidin-1-yl)propanamide]",100 to 3160
3,"C[C@@H](C(=O)Nc1cnc(Oc2ccccc2)cn1)N1CCC(F)(F)[C@@H](c2c[nH]c(=O)c(CN)c2)C1 [Example 207, (S)-2-((S)-3-(5-(aminomethyl)-6-oxo-1,6-dihydropyridin-3-yl)-4,4-difluoropiperidin-1-yl)-N-(5-phenoxypyrazin-2-yl)propanamide]",10 to 100
4,"C[C@@H](C(=O)Nc1ccc(Cl)cn1)N1CCC[C@@H](c2c[nH]c(=O)c(C3CC3)c2)C1 (single isomer, unassigned) [Example 179]",100 to 3160
5,"CC(C(=O)Nc1ccc(Cc2nccs2)cn1)N1CCC(F)(F)[C@@H](c2ccc(=O)[nH]c2)C1 (stereo partly drawn) [Example 52, 2-((S)-4,4-difluoro-3-(6-oxo-1,6-dihydropyridin-3-yl)piperidin-1-yl)-N-(5-(thiazol-2-ylmethyl)pyridin-2-yl)propanamide]",100 to 3160
6,"C[C@@H](C(=O)Nc1ccc(Oc2c(F)cccc2F)cn1)N1CCC(F)(F)[C@@H](c2cc[n+]([O-])cc2)C1 [Example 130, 4-((S)-1-((S)-1-((5-(2,6-difluorophenoxy)pyridin-2-yl)amino)-1-oxopropan-2-yl)-4,4-difluoropiperidin-3-yl)pyridine 1-oxide]",≤ 10
7,"CC(C(=O)Nc1cnc(Oc2ccc(F)cc2)cn1)N1CCC(F)(F)C(c2c[nH]c(=O)c(C#N)c2)C1 (stereo not shown) [Example 250, 2-(3-(5-cyano-6-oxo-1,6-dihydropyridin-3-yl)-4,4-difluoropiperidin-1-yl)-N-(5-(4-fluorophenoxy)pyrazin-2-yl)propanamide]",100 to 3160
8,"C[C@@H](C(=O)Nc1ccc(C(=O)c2ccc(F)cc2)cn1)N1CCC(F)(F)[C@@H](c2cc[n+]([O-])cc2)C1 [Example 128, 4-((S)-4,4-difluoro-1-((S)-1-((5-(4-fluorobenzoyl)pyridin-2-yl)amino)-1-oxopropan-2-yl)piperidin-3-yl)pyridine 1-oxide]",100 to 3160
9,"C[C@@H](C(=O)Nc1ccc(F)cn1)N1CCC(F)(F)[C@@H](c2ccc(=O)n(CC(F)(F)F)c2)C1 [Example 3, (S)-2-((S)-4,4-difluoro-3-(6-oxo-1-(2,2,2-trifluoroethyl)-1,6-dihydropyridin-3-yl)piperidin-1-yl)-N-(5-fluoropyridin-2-yl)propanamide]",≤ 10
10,"C[C@@H](C(=O)Nc1ccc(OCC2CC2)nn1)N1CCC(F)(F)C(c2ccncc2)C1 (stereo partly drawn) [Example 224, (2S)—N-(6-(cyclopropylmethoxy)pyridazin-3-yl)-2-(4,4-difluoro-3-(pyridin-4-yl)piperidin-1-yl)propanamide]",100 to 3160
11,CC(C(=O)Nc1ccc(Oc2ccccc2)cn1)N1CCC(F)(F)C(c2cc[n+]([O-])cc2)C1 (stereo not shown) [Example 110],≤ 10
12,"C[C@@H](C(=O)Nc1ccc(Oc2ccc(F)cc2)cn1)N1CCC(F)(F)[C@@H](c2c[nH]c(=O)c(N)n2)C1 [Example 108, (S)-2-((R)-3-(6-amino-5-oxo-4,5-dihydropyrazin-2-y1)-4,4-difluoropiperidin-1-y1)-N-(5-(4-fluorophenoxy)pyridin-2-yl)propanamide]",≤ 10
13,"CC(C(=O)Nc1ccc(F)cn1)N1CCC(F)(F)C(c2ccc(=O)n(Cc3ccccn3)c2)C1 (stereo not shown) [Example 196, 2-(4,4-difluoro-3-(6-oxo-1-(pyridin-2-ylmethyl)-1,6-dihydropyridin-3-yl)piperidin-1-yl)-N-(5-fluoropyridin-2-yl)propanamide]",10 to 100
14,"Cc1cccc(-c2ccc(NC(=O)[C@H](C)N3CCC(F)(F)[C@@H](c4ccc(=O)[nH]c4)C3)nc2)c1 [Example 16, (S)-2-((S)-4,4-difluoro-3-(6-oxo-1,6-dihydropyridin-3-yl)piperidin-1-yl)-N-(5-(m-tolyl)pyridin-2-yl)propanamide]",10 to 100
15,"C[C@@H](C(=O)Nc1ccc(Oc2ccc(F)cc2)cn1)N1CCC(F)(F)[C@@H](c2c[nH]c(=O)c([C@@H](N)C(F)(F)F)c2)C1 (single isomer, unassigned) [Example 234]",≤ 10
16,"C[C@@H](C(=O)Nc1ccc(OCC2CC2)cn1)N1CCC(F)(F)[C@@H](c2c[nH]c(=O)cn2)C1 [Example 133, (S)—N-(5-(cyclopropylmethoxy)pyridin-2-yl)-2-((R)-4,4-difluoro-3-(5-oxo-4,5-dihydropyrazin-2-yl)piperidin-1-yl)propanamide]",≤ 10

row,Structure (SMILES),IC50 [nM]
1,"CC(C(=O)Nc1cc2cnn(CC3CC3)c2cn1)N1CCC(F)(F)[C@@H](c2ccc(=O)[nH]c2)C1 (stereo partly drawn) [Example 40, N-(1-(cyclopropyl-methyl)-1H-pyrazolo[3,4-c]pyridin-5-yl)-2-((S)-4,4-difluoro-3-(6-oxo-1,6-dihydropyridin-3-yl)piperidin-1-yl)propanamide]",100 to 3160
2,"C[C@@H](C(=O)Nc1ccc(Oc2ccc(F)cn2)cn1)N1CCC(F)(F)[C@@H](c2ccc(=O)[nH]c2)C1 [Example 69, (S)-2-((S)-4,4-difluoro-3-(6-oxo-1,6-dihydropyridin-3-yl)piperidin-1-yl)-N-(5-((5-fluoropyridin-2-yl)oxy)pyridin-2-yl)propanamide]",≤ 10
3,"C[C@@H](C(=O)Nc1ccc(Oc2ccc(F)cc2F)cn1)N1CCC(F)(F)C(c2ccnc(C(N)=O)c2)C1 (mixture of isomers) [Example 261, 4-(1-((S)-1-((5-(2,4-difluorophenoxy)pyridin-2-yl)amino)-1-oxopropan-2-yl)-4,4-difluoropiperidin-3-yl)picolinamide]",≤ 10
4,"CC(C(=O)Nc1ccc(Oc2ccc(F)cc2F)cn1)N1CCC(F)(F)C(c2ccnc(CN)c2)C1 (mixture of isomers) [Example 264, 2-(3-(2-(aminomethyl)pyridin-4-yl)-4,4-difluoropiperidin-1-yl)-N-(5-(2,4-difluorophenoxy)pyridin-2-yl)propanamide]",≤ 10
5,Cc1ccccc1Oc1ccc(NC(=O)[C@H](C)N2CCC(F)(F)[C@@H](c3ccc(=O)[nH]c3)C2)nn1 [Example 20],100 to 3160
6,"C[C@@H](C(=O)Nc1ccc(OCC2CC2)cn1)N1CCC(F)(F)[C@@H](c2c[nH]c(=O)c(C(C)(C)O)c2)C1 [Example 152, (S)—N-(5-(cyclopropylmethoxy)pyridin-2-yl)-2-((S)-4,4-difluoro-3-(5-(2-hydroxypropan-2-yl)-6-oxo-1,6-dihydropyridin-3-yl)piperidin-1-yl)propanamide]",10 to 100
7,"C[C@@H](C(=O)Nc1cc2ccccc2cn1)N1CCC(F)(F)[C@@H](c2ccc(=O)[nH]c2)C1 [Example 34, (S)-2-((S)-4,4-difluoro-3-(6-oxo-1,6-dihydropyridin-3-yl)piperidin-1-yl)-N-(isoquinolin-3-yl)propanamide]",100 to 3160
8,"C[C@@H](C(=O)Nc1cnc(Oc2ccc(F)cc2)cn1)N1CCC(F)(F)[C@@H](c2c[nH]c(=O)c(CN)c2)C1 [Example 206, (S)-2-((S)-3-(5-(aminomethyl)-6-oxo-1,6-dihydropyridin-3-yl)-4,4-difluoropiperidin-1-yl)-N-(5-(4-fluorophenoxy)pyrazin-2-yl)propanamide]",10 to 100
9,"C[C@@H](C(=O)Nc1ccc(Cl)cn1)N1CCC(F)(F)[C@@H](c2ccc(=O)[nH]c2)C1 [Example 81, (S)-N-(5-chloropyridin-2-yl)-2-((S)-4,4-difluoro-3-(6-oxo-1,6-dihydropyridin-3-yl)piperidin-1-yl)propanamide]",100 to 3160
10,"C[C@@H](C(=O)Nc1ccc(Oc2ncc(F)cc2F)cn1)N1CCC(F)(F)[C@@H](c2c[nH]c(=O)c(CN3CCOCC3)c2)C1 [Example 228, (S)-2-((S)-4,4-difluoro-3-(5-(morpholinomethyl)-6-oxo-1,6-dihydropyridin-3-yl)piperidin-1-yl)-N-(5-((3,5-difluoropyridin-2-yl)oxy)pyridin-2-yl)propanamide]",10 to 100
11,C[C@@H]1C[C@@H](c2ccc(=O)[nH]c2)CN([C@@H](C)C(=O)Nc2ccc(Cl)cn2)C1 [Example 173],3160 to 31600
12,"C[C@@H](C(=O)Nc1ccc(OC2CCCC2)nn1)N1CCC(F)(F)[C@@H](c2ccc(=O)[nH]c2)C1 [Example 101, (S)-N-(6-(cyclopentyloxy)pyridazin-3-yl)-2-((S)-4,4-difluoro-3-(6-oxo-1,6-dihydropyridin-3-yl)piperidin-1-yl)propanamide]",10 to 100
13,"CC(C(=O)Nc1ccc(F)cn1)N1CCC(F)(F)C(c2c[nH]c(=O)c(C#N)c2)C1 (stereo not shown) [Example 249, 2-(3-(5-cyano-6-oxo-1,6-dihydropyridin-3-yl)-4,4-difluoropiperidin-1-yl)-N-(5-fluoropyridin-2-yl)propanamide]",100 to 3160
14,C[C@@H](C(=O)Nc1cnc(Oc2ccc(F)cc2CO)cn1)N1CCC(F)(F)[C@@H](c2ccc(=O)[nH]c2)C1 [Example 272],10 to 100
15,"CC(C(=O)Nc1ccc(CC2CCCC2)cn1)N1CCC(F)(F)[C@@H](c2ccc(=O)[nH]c2)C1 (stereo partly drawn) [Example 33, N-(5-(cyclopentyl-methyl)pyridin-2-yl)-2-((S)-4,4-difluoro-3-(6-oxo-1,6-dihydropyridin-3-yl)piperidin-1-yl)propanamide]",100 to 3160

# Source: US11976057B2, “MrgX2 antagonists” (GlaxoSmithKline Intellectual Property Development Limited, priority 2020, dated 2024)
